# Entries after “also recorded” stand apart in the source; their conditions may differ.
# Tests used:
# mice = test: Effect of inhibitor pretreatment on LPA-, LPC- or miR-146a-induced scratching behavior; assay type: in vivo, mouse; conditions: for effect on LPC-induced itch, i.p. injection / effect on miR-146a-induced itch, i.p. injection: i.p.: SB366791 2 mg/kg, HC030031 30 mg/kg; for effect on LPC-induced itch, i.t. injection / effect on miR-146a-induced itch, i.t. injection: i.t. 30 μg
# Method: Behavioral assessment. Mice were shaved at the dorsal neck 1 d before experiments. […] After injections, mice were immediately placed back to the chamber, and the scratching behavior was recorded by a Panasonic video camera for 30 min. Hind limb scratching behavior directed toward the injected area at the nape of neck was observed. One scratch is defined as a lifting of the hind limb toward the injection site and then a replacing of the limb back to the floor, regardless of how many scratching strokes take place between those two movements. Behavioral analysis was conducted by observers blinded to genotype.
# Control animals received the same volume of vehicles.
# Lumbar puncture was made with a 30G-needle and drugs at 5 μL of volume were delivered. Scratching behavior assay was started approximately 2 weeks after resiniferatoxin treatment.
# DRG neurons = test: Ex vivo Ca2+ imaging of GCaMP3-expressing DRG explants; assay type: cell-based, mouse
# Method: A previously established method was followed for ex vivo Ca^2+ imaging of DRG explants (Kim et al. Neuron 2014, 81, 873-887). Intact DRGs (L4 or L5) were isolated from naïve male or female Pirt-GCaMP3 mice (2-3 months old) and equilibrated in artificial cerebrospinal fluid (ACSF) bubbled with 95% O2/5% CO2 at room temperature. After 15 min, explants were placed in a dish with 2 mL of pre-oxygenated ACSF and imaged using a Zeiss 780 upright confocal microscope (Carl Zeiss AG, Oberkochen, Germany) with 20× water immersion objective and Z-stack approach at the 488 nm wavelength. Explants were stimulated by miR-146a or miR-146a scramble. After 15 min recording, capsaicin was then applied to identify whether the miR-146a responding neurons were TRPV1 positive. […] Ca^2+ fluorescence intensity was determined using the ImageJ software (NIH, Bethesda, MD, USA). For each neuron, the pixel intensity (Ft) was assessed for each frame and the pixel intensity recorded from the first 20 frames was taken to determine the average baseline value (F0). Ca^2+ signal amplitudes are presented as ΔF/F0, which is the ratio of fluorescence difference (Ft−F0) to baseline (F0).
# DRG sensory neurons = test: Ca2+ imaging in cultured DRG sensory neurons; assay type: cell-based, mouse; conditions: inhibitor 10 μM
# Method: Primary mouse sensory neurons were cultured following previous protocol (Chen et al. Pain 2014, 155, 2662-2672). DRGs from 2-3 weeks old male WT, Trpv1 KO, and Trpa1 KO mice were dissected and digested with 1 mg/mL collagenase (Worthington, CSL1) and 5 mg/mL dispase (Invitrogen, Waltham, MA) for 1 h, then triturated. The resulting cell suspension was filtered through a 70 μm cell strainer (BD Biosciences, Bedford, MA) to remove debris. Neurons were cultured in DH10 medium (1:1 DMEM:Hams-F12, Invitrogen, Waltham, MA) with 10% FBS (Sigma, St. Louis, MO), 100 U/mL penicillin and 100 μg/mL streptomycin (Gibco, Gaithersburg, MD) and 50 ng/mL nerve growth factor (NGF; USBiological) on coverslips coated with poly-D-lysine and laminin (Invitrogen, Waltham, MA), and incubated with 5% CO2 at 37° C. Ca^2+ imaging was performed next day after culture.
# In vitro and ex vivo Ca^2+ imaging. Routine procedures were followed for Ca^2+ imaging in cultured DRG sensory neurons, epidermal keratinocytes, and HEK cells (Chen et al. J. Biol. Chem. 2016, 291, 10252-10262; Chen et al. Pain 2014, 155, 2662-2672). […] Ratios of emissions were acquired at 0.5 Hz. ΔR/R0 was determined as the fraction of the increase of a given ratio over baseline ratio divided by baseline ratio. […]
# [1] = test system: vesicular release from mKC; test: Vesicular release from cultured mouse keratinocytes (AChE activity); assay type: cell-based; conditions: vs Scramble+LPC
# Method: Vesicular release from cultured keratinocytes was quantified by detecting acetylcholinesterase (AChE) activity in the extracellular release fluid. (Gupta et al. Am. J. Physiol. Heart Circ. Physiol. 2007, 292, H3052-3056; Malik et al. Methods Mol. Biol. 2016, 1448, 237-248). CBQCA Protein Quantitation Kit (Molecular Probes, Eugene, OR) was used to assess the total protein amounts of each sample. Quantitation was carried out according to kit instructions (Fluorocet, Systems Biosciences, Palo Alto, CA). Briefly, vesicles were lysed to release esterase enzyme whose activity is measured using a florescence dye, excitation at 544 nm and emission at 590 nm. Fluostar Optima (BMG Labtech, Cary, NC) microplate reader was used to measure esterase activity. 500 ng protein equivalent of input was used per well. To determine the contribution of Rab5a and Rab27a to LPC-induced miR-146a release, cells were pre-treated with the Rab5a (5′-GUAGAAUCAA GUUUCUAAUUCUGAA-3′ SEQ ID NO: 9, 5′-[…]-3′ SEQ ID NO: 10) or Rab27a (5′-AGCUAAAA CUGAGAGCUUCAAACAG-3′ SEQ ID NO: 11, 5′-[…]-3′ SEQ ID NO: 12) siRNA (IDT, Coralville, IA) for 72 h before stimulation. Control cells were treated with scramble siRNA.
# [2] = test system: extracellular release of miR-146a; test: Extracellular release of miRs from cultured mouse keratinocytes (RT-qPCR); assay type: cell-based; conditions: mKC; for effect of siRNA knockdown on LPC-elicited release of miR-146a: LPC 10 μM, 10 min, siRNA 72 h, vs Scramble+LPC; for decrease of extracellular-released miR-146a: siRNA knockdown, LPC stimulation
# Method: Primary mouse keratinocytes were cultured following previous protocol (Chen et al. J. Biol. Chem. 2016, 291, 10252-10262). The epidermis from the back skin of newborn WT or keratinocyte-Trpv4 cKO mice was separated from the dermis by floating the skin on 0.25% trypsin (Gibco, Gaithersburg, MD) for 14-18 h at 4° C. Basal keratinocytes were separated from the cornified sheets by filtration through a […] cell strainer. Keratinocytes were plated on collagen I-coated dishes or glass coverslips and grown in EME media (Gibco, Gaithersburg, MD) containing 8% chelex (Bio-rad, Hercules, CA)-treated FBS with the final Ca^2+ adjusted to 0.05 mM, bovine pituitary extract (50 μg/mL), epidermal growth factor (5 ng/mL), and lx antibiotics/antimycotics (Gibco, Gaithersburg, MD) in a humidified incubator with 5% CO2 at 37° C. for 5-7 days until use. To knockdown Trpv4 in isolated keratinocytes from newborn keratinocyte-Trpv4 cKO mice, cells were treated with 4-OH tamoxifen at 500 nM for 72 h.
# Measurement of released vesicles and extracellular miR-146a from cultured keratinocytes or sera Medium for the cultured keratinocytes was replaced with serum-free medium 2 h before LPC stimulation. […] Finally, cell-free supernatants were further purified using a Vesicular Isolation kit (Invitrogen, Waltham, MA) according to the manufacturer's instructions, with final product resuspended in ice-cold PBS. Total RNA extraction was then carried out using a Total RNA Isolation kit (Invitrogen, Waltham, MA). Enrichment for small RNAs was carried out by sequential increase in ethanol concentration and passing through glass-fiber filters. RNase free water was used to elute small RNAs in the final elution step. For human PBC sera or sera from ANIT-treated mice, RNA was isolated using Qiagen miRNeasy Plasma/Serum kit. cDNA synthesis from extracted RNAs was performed according to manufacturer's instructions (qSTAR miRNA kit, Origene). For qPCR, the stem-loop oligonucleotides specific for the following miRs are as follows: miR-146a-5p (GAGAACTGAATTCCATGGG, SEQ ID NO: 4), miR-let-7b (GAGGTAGTAGGTTGTGTGG, SEQ ID NO: 5), miR-125b-1 (CCCT GAGACCCTAACTTG, SEQ ID NO: 6), miR-203 (GTGGTTC TTGACAGTTCAAC, SEQ ID NO: 7), and miR-16-5p (AGCAGCAC GTAAATATTGGC, SEQ ID NO: 8). Primers were purchased from Integrated DNA Technologies company (Coralville, IA). qPCR reactions for each sample were run in triplicates, including no-template controls. MiR-16-5p was selected as a control due to the relative constancy of its expression in various cultured cell lines (Schwarzenbach et al. Clin. Chem. 2015, 61, 1333-1342). qPCR for this miR was performed in tandem with target miRs to determine the optimal normalization procedure. To investigate the effects of the specific TRPV4 inhibitors GSK205 or HC067047 and the specific MEK inhibitor U0126 on LPC-induced extracellular release of miR-146a, cells were incubated with the inhibitors for 15 min before stimulation. Control cells received the same volume of vehicle.
# Vesicular release from cultured keratinocytes was quantified by detecting acetylcholinesterase (AChE) activity in the extracellular release fluid. (Gupta et al. Am. J. Physiol. Heart Circ. Physiol. 2007, 292, H3052-3056; Malik et al. Methods Mol. Biol. 2016, 1448, 237-248). CBQCA Protein Quantitation Kit (Molecular Probes, Eugene, OR) was used to assess the total protein amounts of each sample. Quantitation was carried out according to kit instructions (Fluorocet, Systems Biosciences, Palo Alto, CA). Briefly, vesicles were lysed to release esterase enzyme whose activity is measured using a florescence dye, excitation at 544 nm and emission at 590 nm. Fluostar Optima (BMG Labtech, Cary, NC) microplate reader was used to measure esterase activity. 500 ng protein equivalent of input was used per well. […]
Molecule,"effect on LPC-induced itch, i.p. injection (mice)","effect on miR-146a-induced itch, i.p. injection (mice)","effect on LPC-induced itch, i.t. injection (mice)","effect on miR-146a-induced itch, i.t. injection (mice)",effect on percentage of total DRG neurons responding to miR-146a (300 nM) (DRG neurons; inhibitor 10 μM),effect on miR-146a (300 nM) induced Ca2+ influx (DRG sensory neurons),effect of siRNA on LPC-elicited vesicular release [1],effect of siRNA knockdown on LPC-elicited release of miR-146a [2],decrease of extracellular-released miR-146a [2],"Ca2+ signal in sensory neurons following stimulation (DRG neurons; miR-146a 300 nM, capsaicin 1 μM)"
COc1cccc(NC(=O)/C=C/c2ccc(Cl)cc2)c1 [SB366791],significantly reduced; also recorded: significantly attenuated,significantly reduced; also recorded: significantly attenuated,significantly reduced; also recorded: significantly attenuated,significantly reduced; also recorded: significantly attenuated,significantly reduced,significantly reduced,,,,
"Rab5a siRNA: siRNA against Rab5a, SEQ ID NO: 9 and 10 (chain 1 GUAGAAUCAAGUUUCUAAUUCUGAA; chain 2 UUCAGAAUUAGAAACUUGAUUCUACCA; listed as RNA, chemistry not given here)",,,,,,,completely eliminated; also recorded: significant decrease,significant decrease,~40%,
COc1cc(CNC(=O)CCCC/C=C/C(C)C)ccc1O [capsaicin],,,,,,,,,,increased
"Rab27a siRNA: siRNA against Rab27a, SEQ ID NO: 11 and 12 (chain 1 AGCUAAAACUGAGAGCUUCAAACAG; chain 2 CUGUUUGAAGCUCUCAGUUUUAGCUUA; listed as RNA, chemistry not given here)",,,,,,,completely eliminated; also recorded: significant decrease,significant decrease,~40%,
CC(C)c1ccc(NC(=O)Cn2cnc3c2c(=O)n(C)c(=O)n3C)cc1 [HC030031],not significantly altered,not significantly altered,not significantly altered,not significantly altered,,not significantly altered,,,,
